The text below walks through data of ChEMBL document CHEMBL3085729, “Total synthesis of schizocommunin and revision of its structure” (J Nat Prod, 2013).

Molecules are shown by their SMILES. A value given as a limit tells only on which side of the number the result lay.

The test system of one experiment is A549. Briefly: Antiproliferative activity against human A549 cells after 48 hrs. Format: functional, cell-based. The settings on record: A549, 48 h.
For the next experiment, the system named is HeLa. Briefly: Antiproliferative activity against human HeLa cells after 48 hrs. In kind it is functional, cell-based.

A word on the IC50: it is the concentration that inhibits the measured activity by half. Take `O=C1Nc2ccccc2/C1=C\c1n[nH]c2ccccc2c1=O`: the IC50 in the experiment on A549 and in the experiment with HeLa was greater than 100 µM in each case.
For `O=C1Nc2ccccc2/C1=C/c1nc2ccccc2c(=O)[nH]1`, the IC50 in the experiment on A549 is greater than 100 µM; in the experiment with HeLa, 15.2 µM.
For `O=C1Nc2ccccc2/C1=C\c1nnc2ccccc2c1Cl`, the IC50 with A549 stood at 93.3 µM; in the experiment on HeLa, 7.8 µM.
In the case of `CC(=O)N1C(=O)/C(=C/c2nnc3ccccc3c2Cl)c2ccccc21`, the IC50 with A549 was greater than 100 µM; with HeLa, 28.8 µM.
Regarding `COc1c(/C=C2/C(=O)Nc3ccccc32)nnc2ccccc12`, the IC50 was greater than 100 µM in the experiment with A549 and 19.6 µM in the experiment with HeLa.
